Test results reported in paper PMC4917279 (Journal of Medicinal Chemistry, 2016).

Tests used:
Experiment in all cases: KINOMEscan
Type in all cases: binding
Settings in all cases: read-out: %Ctrl @ 1000 nM
[1] = target: T1, PIK3CA(E545K) (Homo sapiens, UniProt P42336, E545K)
T1 construct: purchased DiscoveRx KINOMEscan

[2] = target: T2, PIK3CB (Homo sapiens, UniProt P42338)
T2 construct: purchased DiscoveRx KINOMEscan

[3] = target: T3, ABL1(Q252H)-phosphorylated (Homo sapiens, UniProt P00519, Q252H)
T3 construct: purchased DiscoveRx (KINOMEscan service)

[4] = target: T4, TGFBR1 (Homo sapiens, UniProt P36897)
T4 construct: purchased DiscoveRx KINOMEscan

[5] = target: T5, ACVR1B (Homo sapiens, UniProt P36896)
T5 construct: purchased DiscoveRx

[6] = target: T6, TLK2 (Homo sapiens, UniProt Q86UE8)
T6 construct: purchased DiscoveRx KINOMEscan

[7] = target: T7, RSK3(Kin.Dom.2-C-terminal) (Homo sapiens, UniProt Q15349)
T7 construct: RSK3(Kin.Dom.2-C-terminal); purchased DiscoveRx KINOMEscan

[8] = target: T8, LRRK2 (Homo sapiens, UniProt Q5S007)
T8 construct: purchased DiscoveRx KINOMEscan

[9] = target: T9, ALK (Homo sapiens, UniProt Q9UM73)
T9 construct: purchased DiscoveRx KINOMEscan

[10] = target: T10, ABL1(T315I)-phosphorylated (Homo sapiens, UniProt P00519, T315I)
T10 construct: purchased DiscoveRx

[11] = target: T11, HASPIN (Homo sapiens, UniProt Q8TF76)
T11 construct: purchased DiscoveRx KINOMEscan

[12] = target: T12, PRKCD (Homo sapiens, UniProt Q05655)
T12 construct: purchased DiscoveRx KINOMEscan

[13] = target: T13, RPS6KA4(Kin.Dom.1-N-terminal) (Homo sapiens, UniProt O75676)
T13 construct: RPS6KA4(Kin.Dom.1-N-terminal); purchased DiscoveRx KINOMEscan

[14] = target: T14, TXK (Homo sapiens, UniProt P42681)
T14 construct: purchased DiscoveRx KINOMEscan

[15] = target: T15, PAK3 (Homo sapiens, UniProt O75914)
T15 construct: purchased DiscoveRx KINOMEscan

[16] = target: T16, SIK2 (Homo sapiens, UniProt Q9H0K1)
T16 construct: purchased DiscoveRx KINOMEscan

[17] = target: T17, RIOK3 (Homo sapiens, UniProt O14730)
T17 construct: purchased DiscoveRx KINOMEscan

[18] = target: T18, ULK1 (Homo sapiens, UniProt O75385)
T18 construct: purchased DiscoveRx KINOMEscan

[19] = target: T19, RIPK1 (Homo sapiens, UniProt Q13546)
T19 construct: purchased DiscoveRx KINOMEscan

[20] = target: T20, IRAK3 (Homo sapiens, UniProt Q9Y616)
T20 construct: purchased DiscoveRx KINOMEscan

[21] = target: T21, CDK5 (Homo sapiens, UniProt Q00535)
T21 construct: purchased DiscoveRx KINOMEscan

[22] = target: T22, EGFR(S752-I759del) (Homo sapiens, UniProt P00533, DEL752-759)
T22 construct: purchased DiscoveRx KINOMEscan

[23] = target: T23, YES (Homo sapiens, UniProt P07947)
T23 construct: purchased DiscoveRx KINOMEscan

[24] = target: T24, TBK1 (Homo sapiens, UniProt Q9UHD2)
T24 construct: purchased DiscoveRx KINOMEscan

[25] = target: T25, PAK1 (Homo sapiens, UniProt Q13153)
T25 construct: purchased DiscoveRx KINOMEscan

[26] = target: T26, RSK4(Kin.Dom.2-C-terminal) (Homo sapiens, UniProt Q9UK32)
T26 construct: RSK4(Kin.Dom.2-C-terminal); purchased DiscoveRx KINOMEscan

[27] = target: T27, EIF2AK1 (Homo sapiens, UniProt Q9BQI3)
T27 construct: purchased DiscoveRx KINOMEscan

[28] = target: T28, FLT1 (Homo sapiens, UniProt P17948)
T28 construct: purchased DiscoveRx KINOMEscan

[29] = target: T29, MUSK (Homo sapiens, UniProt O15146)
T29 construct: purchased DiscoveRx KINOMEscan

[30] = target: T30, PKN2 (Homo sapiens, UniProt Q16513)
T30 construct: purchased DiscoveRx KINOMEscan

[31] = target: T31, STK36 (Homo sapiens, UniProt Q9NRP7)
T31 construct: purchased DiscoveRx KINOMEscan

[32] = target: T32, PIP5K2C (Homo sapiens, UniProt Q8TBX8)
T32 construct: purchased DiscoveRx KINOMEscan

[33] = target: T33, PCTK1 (Homo sapiens, UniProt Q00536)
T33 construct: purchased DiscoveRx KINOMEscan

[34] = target: T34, CAMK1G (Homo sapiens, UniProt Q96NX5)
T34 construct: purchased DiscoveRx KINOMEscan

[35] = target: T35, EPHB6 (Homo sapiens, UniProt O15197)
T35 construct: purchased DiscoveRx KINOMEscan

[36] = target: T36, KIT(V559D,T670I) (Homo sapiens, UniProt P10721, T670I/V559D)
T36 construct: purchased DiscoveRx KINOMEscan

[37] = target: T37, BMPR1B (Homo sapiens, UniProt O00238)
T37 construct: purchased DiscoveRx KINOMEscan

[38] = target: T38, TNK2 (Homo sapiens, UniProt Q07912)
T38 construct: purchased DiscoveRx KINOMEscan

[39] = target: T39, NEK3 (Homo sapiens, UniProt P51956)
T39 construct: purchased DiscoveRx KINOMEscan

[40] = target: T40, DAPK1 (Homo sapiens, UniProt P53355)
T40 construct: purchased DiscoveRx KINOMEscan

[41] = target: T41, CIT (Homo sapiens, UniProt O14578)
T41 construct: purchased DiscoveRx KINOMEscan

[42] = target: T42, MST3 (Homo sapiens, UniProt Q9Y6E0)
T42 construct: purchased DiscoveRx KINOMEscan

T15 sequence (O75914 whole entry): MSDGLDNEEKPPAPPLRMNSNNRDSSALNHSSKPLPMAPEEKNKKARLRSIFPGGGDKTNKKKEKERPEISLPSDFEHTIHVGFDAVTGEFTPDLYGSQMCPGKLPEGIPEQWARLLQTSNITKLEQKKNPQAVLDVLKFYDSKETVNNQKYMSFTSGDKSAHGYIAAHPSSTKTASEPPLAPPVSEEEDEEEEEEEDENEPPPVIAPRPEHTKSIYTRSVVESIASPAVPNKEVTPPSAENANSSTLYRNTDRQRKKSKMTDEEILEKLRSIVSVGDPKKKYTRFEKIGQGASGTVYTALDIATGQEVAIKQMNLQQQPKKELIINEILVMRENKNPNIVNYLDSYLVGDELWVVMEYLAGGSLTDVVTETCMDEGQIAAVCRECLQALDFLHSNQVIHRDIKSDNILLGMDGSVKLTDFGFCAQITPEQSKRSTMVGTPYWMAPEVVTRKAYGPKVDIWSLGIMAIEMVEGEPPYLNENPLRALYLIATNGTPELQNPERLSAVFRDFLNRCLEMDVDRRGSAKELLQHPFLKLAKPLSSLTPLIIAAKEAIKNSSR
T24 sequence (Q9UHD2 whole entry): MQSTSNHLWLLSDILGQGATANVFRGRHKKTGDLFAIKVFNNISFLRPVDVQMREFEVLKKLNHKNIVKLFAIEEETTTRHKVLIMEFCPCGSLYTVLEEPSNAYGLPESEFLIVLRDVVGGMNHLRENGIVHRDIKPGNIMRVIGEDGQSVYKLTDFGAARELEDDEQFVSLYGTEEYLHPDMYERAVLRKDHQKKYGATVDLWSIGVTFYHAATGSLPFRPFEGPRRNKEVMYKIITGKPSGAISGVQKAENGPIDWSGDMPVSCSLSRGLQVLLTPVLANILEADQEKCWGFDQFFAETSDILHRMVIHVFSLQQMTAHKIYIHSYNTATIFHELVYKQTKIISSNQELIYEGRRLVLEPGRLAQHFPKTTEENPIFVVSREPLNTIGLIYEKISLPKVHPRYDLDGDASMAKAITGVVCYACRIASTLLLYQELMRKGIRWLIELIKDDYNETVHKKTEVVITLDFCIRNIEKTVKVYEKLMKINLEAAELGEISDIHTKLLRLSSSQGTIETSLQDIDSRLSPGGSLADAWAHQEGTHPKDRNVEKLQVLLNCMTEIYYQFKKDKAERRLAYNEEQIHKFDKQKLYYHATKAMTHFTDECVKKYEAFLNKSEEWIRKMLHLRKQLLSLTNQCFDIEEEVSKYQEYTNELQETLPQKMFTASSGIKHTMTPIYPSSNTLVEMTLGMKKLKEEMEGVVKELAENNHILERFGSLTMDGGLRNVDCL
T27 sequence (Q9BQI3 whole entry): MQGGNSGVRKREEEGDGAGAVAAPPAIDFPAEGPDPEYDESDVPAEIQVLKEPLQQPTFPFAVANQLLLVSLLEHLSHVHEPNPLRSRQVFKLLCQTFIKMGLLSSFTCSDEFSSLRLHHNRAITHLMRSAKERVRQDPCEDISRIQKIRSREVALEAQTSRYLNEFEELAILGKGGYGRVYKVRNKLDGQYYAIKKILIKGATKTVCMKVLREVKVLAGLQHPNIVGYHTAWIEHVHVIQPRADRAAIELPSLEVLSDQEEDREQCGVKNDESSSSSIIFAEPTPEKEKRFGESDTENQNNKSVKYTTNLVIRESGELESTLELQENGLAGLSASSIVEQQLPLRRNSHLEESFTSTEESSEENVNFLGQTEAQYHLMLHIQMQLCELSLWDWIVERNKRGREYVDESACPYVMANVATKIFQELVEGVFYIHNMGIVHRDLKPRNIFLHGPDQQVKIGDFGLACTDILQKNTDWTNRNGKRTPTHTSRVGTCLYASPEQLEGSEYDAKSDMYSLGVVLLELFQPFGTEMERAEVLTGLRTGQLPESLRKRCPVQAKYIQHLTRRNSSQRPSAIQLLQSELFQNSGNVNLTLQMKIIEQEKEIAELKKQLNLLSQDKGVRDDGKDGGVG
T30 sequence (Q16513 whole entry): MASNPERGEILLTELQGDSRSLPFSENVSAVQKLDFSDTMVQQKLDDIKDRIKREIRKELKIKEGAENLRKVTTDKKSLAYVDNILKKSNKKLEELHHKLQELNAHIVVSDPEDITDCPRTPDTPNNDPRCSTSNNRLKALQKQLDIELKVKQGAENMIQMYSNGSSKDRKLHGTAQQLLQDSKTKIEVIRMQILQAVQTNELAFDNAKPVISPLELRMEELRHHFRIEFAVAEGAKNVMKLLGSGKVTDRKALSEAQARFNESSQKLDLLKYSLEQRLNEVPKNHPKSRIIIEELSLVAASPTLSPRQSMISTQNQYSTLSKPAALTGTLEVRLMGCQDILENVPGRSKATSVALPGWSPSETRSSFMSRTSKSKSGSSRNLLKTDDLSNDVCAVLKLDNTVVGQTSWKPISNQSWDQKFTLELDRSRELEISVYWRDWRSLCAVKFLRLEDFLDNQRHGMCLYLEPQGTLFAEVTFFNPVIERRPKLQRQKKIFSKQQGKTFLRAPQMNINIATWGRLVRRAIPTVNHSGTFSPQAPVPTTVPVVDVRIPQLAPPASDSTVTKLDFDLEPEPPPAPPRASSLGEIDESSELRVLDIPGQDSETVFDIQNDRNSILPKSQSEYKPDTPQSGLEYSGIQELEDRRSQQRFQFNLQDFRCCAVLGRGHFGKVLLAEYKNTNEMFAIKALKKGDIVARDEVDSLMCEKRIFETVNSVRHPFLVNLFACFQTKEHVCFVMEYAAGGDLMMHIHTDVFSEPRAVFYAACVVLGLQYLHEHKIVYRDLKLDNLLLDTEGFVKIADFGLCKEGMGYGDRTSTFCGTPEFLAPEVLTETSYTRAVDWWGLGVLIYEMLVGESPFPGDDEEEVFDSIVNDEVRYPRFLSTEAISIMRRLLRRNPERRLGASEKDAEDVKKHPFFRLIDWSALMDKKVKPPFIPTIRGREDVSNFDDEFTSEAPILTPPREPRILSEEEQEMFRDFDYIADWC
T35 sequence (O15197 32-1021): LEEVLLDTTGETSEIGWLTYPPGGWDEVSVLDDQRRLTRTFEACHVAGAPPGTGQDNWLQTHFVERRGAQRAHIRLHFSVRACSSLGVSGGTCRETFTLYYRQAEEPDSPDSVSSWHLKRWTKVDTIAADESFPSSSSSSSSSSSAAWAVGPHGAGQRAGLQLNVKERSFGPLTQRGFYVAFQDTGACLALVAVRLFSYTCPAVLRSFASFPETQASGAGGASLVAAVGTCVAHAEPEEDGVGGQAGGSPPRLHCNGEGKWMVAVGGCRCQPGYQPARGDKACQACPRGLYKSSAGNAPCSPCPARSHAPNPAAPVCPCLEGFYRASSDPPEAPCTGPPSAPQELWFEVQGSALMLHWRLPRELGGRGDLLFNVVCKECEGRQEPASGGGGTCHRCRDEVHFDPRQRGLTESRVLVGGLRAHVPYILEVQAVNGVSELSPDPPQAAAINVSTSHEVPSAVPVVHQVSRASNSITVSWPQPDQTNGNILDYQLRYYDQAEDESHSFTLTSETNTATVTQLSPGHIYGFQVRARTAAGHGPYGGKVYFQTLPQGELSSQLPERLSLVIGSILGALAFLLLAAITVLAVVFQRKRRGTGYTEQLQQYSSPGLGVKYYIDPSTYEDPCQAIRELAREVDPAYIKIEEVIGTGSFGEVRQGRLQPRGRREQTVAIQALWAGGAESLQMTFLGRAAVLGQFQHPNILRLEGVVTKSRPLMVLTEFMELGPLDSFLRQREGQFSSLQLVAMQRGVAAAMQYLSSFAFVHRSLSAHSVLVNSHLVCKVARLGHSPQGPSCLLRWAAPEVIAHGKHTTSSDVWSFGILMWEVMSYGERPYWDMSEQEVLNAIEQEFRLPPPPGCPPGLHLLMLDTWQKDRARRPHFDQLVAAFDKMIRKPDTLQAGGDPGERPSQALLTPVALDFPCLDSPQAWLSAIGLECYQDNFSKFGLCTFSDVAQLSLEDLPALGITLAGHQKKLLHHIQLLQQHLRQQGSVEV
T16 sequence (Q9H0K1 whole entry): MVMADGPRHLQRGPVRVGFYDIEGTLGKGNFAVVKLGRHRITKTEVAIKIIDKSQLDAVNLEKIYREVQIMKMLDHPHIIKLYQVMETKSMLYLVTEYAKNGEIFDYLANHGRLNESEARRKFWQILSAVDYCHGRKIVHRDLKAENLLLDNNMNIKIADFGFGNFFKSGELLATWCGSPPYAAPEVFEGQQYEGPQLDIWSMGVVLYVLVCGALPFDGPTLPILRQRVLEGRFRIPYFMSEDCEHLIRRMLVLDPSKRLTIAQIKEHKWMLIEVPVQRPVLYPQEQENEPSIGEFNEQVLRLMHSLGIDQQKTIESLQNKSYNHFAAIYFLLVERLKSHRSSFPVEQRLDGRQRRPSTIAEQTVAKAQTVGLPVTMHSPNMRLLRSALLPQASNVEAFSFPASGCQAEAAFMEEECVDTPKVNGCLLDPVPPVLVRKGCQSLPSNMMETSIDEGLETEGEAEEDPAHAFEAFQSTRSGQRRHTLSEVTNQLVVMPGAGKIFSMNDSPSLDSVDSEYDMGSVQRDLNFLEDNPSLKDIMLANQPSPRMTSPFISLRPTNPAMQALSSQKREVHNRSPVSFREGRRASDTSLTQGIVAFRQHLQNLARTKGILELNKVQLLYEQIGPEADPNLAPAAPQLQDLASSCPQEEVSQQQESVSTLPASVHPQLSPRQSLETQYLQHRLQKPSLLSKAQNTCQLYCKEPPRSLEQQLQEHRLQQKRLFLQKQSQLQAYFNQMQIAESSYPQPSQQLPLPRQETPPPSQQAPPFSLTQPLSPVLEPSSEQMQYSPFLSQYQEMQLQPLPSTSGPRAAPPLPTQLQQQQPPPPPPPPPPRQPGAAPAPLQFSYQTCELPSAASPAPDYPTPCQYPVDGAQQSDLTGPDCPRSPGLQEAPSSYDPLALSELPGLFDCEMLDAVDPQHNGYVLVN
T7 sequence (Q15349 415-672 limits assumed): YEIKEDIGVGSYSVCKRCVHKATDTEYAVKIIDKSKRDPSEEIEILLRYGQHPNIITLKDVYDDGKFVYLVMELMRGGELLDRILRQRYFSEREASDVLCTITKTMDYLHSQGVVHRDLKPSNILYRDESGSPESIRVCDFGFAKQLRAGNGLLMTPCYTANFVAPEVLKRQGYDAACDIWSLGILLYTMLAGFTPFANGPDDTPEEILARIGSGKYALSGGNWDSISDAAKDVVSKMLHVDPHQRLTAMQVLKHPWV

## CCN(C(=O)CO)[C@H]1CN(/C(=N\C#N)Nc2cccc(OC(F)F)c2)N=C1c1ccc(Cl)c(Cl)c1 [(S)-4]
[1]
  remaining binding at 1 µM: 71%
[2]
  remaining binding at 1 µM: 100%
[3]
  remaining binding at 1 µM: 100%
[4]
  remaining binding at 1 µM: 100%
[5]
  remaining binding at 1 µM: 100%
[6]
  remaining binding at 1 µM: 93%
[7]
  remaining binding at 1 µM: 100%
[8]
  remaining binding at 1 µM: 100%
[9]
  remaining binding at 1 µM: 93%
[10]
  remaining binding at 1 µM: 100%
[11]
  remaining binding at 1 µM: 100%
[12]
  remaining binding at 1 µM: 89%
[13]
  remaining binding at 1 µM: 100%
[14]
  remaining binding at 1 µM: 73%
[15]
  remaining binding at 1 µM: 100%
[16]
  remaining binding at 1 µM: 99%
[17]
  remaining binding at 1 µM: 46%
[18]
  remaining binding at 1 µM: 64%
[19]
  remaining binding at 1 µM: 76%
[20]
  remaining binding at 1 µM: 93%
[21]
  remaining binding at 1 µM: 82%
[22]
  remaining binding at 1 µM: 100%
[23]
  remaining binding at 1 µM: 100%
[24]
  remaining binding at 1 µM: 82%
[25]
  remaining binding at 1 µM: 84%
[26]
  remaining binding at 1 µM: 100%
[27]
  remaining binding at 1 µM: 100%
[28]
  remaining binding at 1 µM: 95%
[29]
  remaining binding at 1 µM: 97%
[30]
  remaining binding at 1 µM: 100%
[31]
  remaining binding at 1 µM: 81%
[32]
  remaining binding at 1 µM: 85%
[33]
  remaining binding at 1 µM: 98%
[34]
  remaining binding at 1 µM: 98%
[35]
  remaining binding at 1 µM: 100%
[36]
  remaining binding at 1 µM: 100%
[37]
  remaining binding at 1 µM: 100%
[38]
  remaining binding at 1 µM: 96%
[39]
  remaining binding at 1 µM: 95%
[40]
  remaining binding at 1 µM: 100%
[41]
  remaining binding at 1 µM: 63%
[42]
  remaining binding at 1 µM: 100%
